Results reported in US6465496B1, “Torsemide polymorphs” (Teva Pharmaceutical Industries, Ltd., priority 1999, dated 2002).

Tests used:
Assay type in all cases: physicochemical
[1] = pH at which torsemide begins to precipitate on acidifying the basified aqueous/alcohol solution; conditions: water/organic solvent (isopropanol or ethanol) solution, pH lowered with acid
Procedure: An organic solvent is then added to the torsemide solution with stirring. Suitable solvents include water soluble or partially water soluble alcohols such as propanol, isopropanol and ethanol. Preferably, the solvent is isopropanol or ethanol. The pH of the torsemide solution is then lowered by the addition of a suitable acid until the solution begins to become cloudy and torsemide Dupont Form 2 begins to precipitate. Torsemide begins to precipitate at about pH 6. Suitable acids include acetic acid, hydrochloric acid, sulfuric acid, mineral acids and the like. Acetic acid is preferred. Since torsemide is known to decompose at pH 3.0, the pH of the solution is preferably maintained at about 6±0.1 with a minimum pH of […] and a maximum pH of 7.5±0.5. Torsemide Dupont Form 2 is then isolated by filtration and drying to remove solvent.
An organic solvent is then added to the torsemide solution with stirring. Suitable solvents include water soluble or partially water soluble alcohols such as propanol, isopropanol and ethanol. Preferably, the solvent is isopropanol or ethanol. The pH of the torsemide solution is then lowered by the addition of a suitable acid until the solution begins to become cloudy and torsemide Dupont Form 2 solvent adduct begins to precipitate. Torsemide begins to precipitate at about pH 6. […]

[2] = solubility of amorphous torsemide compared with crystalline forms; conditions: compared with crystalline forms reported in U.S. Pat. No. 5,914,336, U.S. Pat. No. Re. 34,672 and WO 00/20395
[3] = stability of the crystal form in an ethanol slurry; conditions: stirred at room temperature
Procedure: (§1) In another embodiment of the present invention, torsemide modification I may be made from torsemide modification II by reslurry in ethanol. By the process of the present invention, torsemide modification II is stirred at room temperature in ethanol for a time sufficient to induce the transformation of torsemide modification II to torsemide modification I. Preferably the mixture is stirred for 2 hours. Torsemide modification I is isolated upon filtering the mixture followed by drying under high vacuum at a temperature of about 40° C. to about 60° C. for a sufficient time to complete drying. Drying is complete upon reaching constant weight. It has been observed that torsemide modification I is stable in an ethanol slurry for at least 65 hours.
as §1, with “dimethyl formamide (DMF).” for “ethanol.”, “methods” for “process”, “DMF” for “ethanol”, “I.” for “I. Preferably the mixture is stirred for 2 hours.”, “It has been observed that torsemide modification I is stable in an ethanol slurry for at least 65 hours.” left out

## Cc1cccc(Nc2ccncc2S(=O)(=O)NC(=O)NC(C)C)c1 [torsemide, 1-Isopropyl-3-[(4-m-toluidino-3-pyridyl)sulfonyl]urea]
[1]
  pH at which torsemide begins to precipitate: about 6 pH

## Cc1cccc(Nc2ccncc2S(=O)(=O)NC(=O)NC(C)C)c1 [amorphous torsemide]
[2]
  solubility relative to crystalline forms of torsemide: more soluble than crystalline forms of torsemide

## Cc1cccc(Nc2ccncc2S(=O)(=O)NC(=O)NC(C)C)c1 [torsemide modification I]
[3]
  time stable in an ethanol slurry: at least 65 hours
